Measurements as given in patent US20090099237A1, “Methods of treating inflammatory diseases” (Roche Palo Alto LLC, priority 2007, published 2009).

Key:
[1] = tested on: IL-8 production in neutrophils; assay: Neutrophil assay, IL-8 production; format: cell-based; settings: human neutrophils stimulated by inflammatory agents; FIG. 2
Source text: (§1) Selective CK1α, CK1α-CK1δ, CK1α-CK1ε or CK1α-CK1δ-CK1ε inhibitors can be tested for their antiinflammatory effects using a variety of in vitro and in vivo tests that are well known in the art. One such in vitro test involves the application of the inhibitor to human neutrophils to observe whether the induction of inflammatory cytokines, such as IL-8, by tumor necrosis factor (TNF) or lipopolysaccharide (LPS) can be reduced. This test is further described in Example 3. An example of an in vivo test, as described in Example 4, is the air pouch model of inflammatory synovitis in mice in which the inhibitors are tested for their blockade of neutrophil influx as well as of inflammatory cytokine accumulation.
The Histopaque 1077 and 1119 gradient density centrifugation method (Sigma-Aldrich) was used to isolate granulocytes from human blood. The granulocytes were recovered from the 1077/1119 interphase, washed twice with PBS. The red blood cells were lysed with PureGene red cell lysis buffer (Gentra Biosystems). The cells were washed again and resuspended in growth media (RPMI, 10% FBS, β-mercaptoethanol, Pen/Strep/glutamine and sodium pyruvate) at a density of 1 to 5 million per ml. […] The supernatant was analyzed for cytokine production (Luminex human 22-plex assay) and the cells were lysed for RNA production and analysis.

[2] = tested on: LPS-induced air pouch synovitis; assay: Air pouch synovitis model; format: in vivo, Balbc/J mice; settings: 1 μg LPS, FIG. 3
Source text: as §1
Adult Balbc/J mice were purchased from Charles River Labs and housed and utilized according IACUC protocols and standards. The airpouch was inflated on the dorsal surface of each mouse with 3 ml of air, after light anesthesia with CO2/O2 mix. Three days later each pouch was re-inflated with 3 mls of air. After an additional three days, the pouches were injected with vehicle or compound (normally in 0.1% DMSO in PBS) in 1 ml per pouch. After 20 to 30 minutes, each pouch received 1 μg of LPS or control (PBS). The animals were euthanized four to six hours later. The pouches were flushed with 2 ml of PBS, the cells were then collected, counted and normalized for volume recovered. The fluid recovered was analyzed for cytokine production (Luminex Mouse 21-plex assay). The cells were lysed for RNA or protein analysis.

CK1α = target: T1, CK1α (Homo sapiens, UniProt P48729); assay: In vitro kinase assay (33P, peptide substrate); format: biochemical
T1 construct: purchased Invitrogen
T1 sequence (P48729 whole entry): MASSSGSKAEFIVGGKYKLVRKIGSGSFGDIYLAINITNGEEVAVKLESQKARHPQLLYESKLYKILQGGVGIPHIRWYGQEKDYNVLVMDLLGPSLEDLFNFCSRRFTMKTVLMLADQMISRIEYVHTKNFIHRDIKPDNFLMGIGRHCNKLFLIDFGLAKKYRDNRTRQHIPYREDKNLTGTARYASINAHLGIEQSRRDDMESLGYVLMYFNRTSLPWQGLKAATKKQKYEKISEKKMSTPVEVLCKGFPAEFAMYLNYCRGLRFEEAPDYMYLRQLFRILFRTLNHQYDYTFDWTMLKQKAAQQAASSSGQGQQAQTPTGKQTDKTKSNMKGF

SMILES: NC(=O)c1ccc(-c2nc(-c3ccc4c(c3)OCO4)c(-c3ccccn3)[nH]2)cc1 [SB431542, 4-(4-benzo-[1,3]dioxol-5-yl-5-pyridin-2-yl-1H-imidazol-2-yl)benzamide]
- inhibition of IL-8 production in neutrophils [1]: dose-dependent inhibition
- production of IL-6 ([2]; mouse air pouch fluid): inhibited
- production of MCP1 ([2]; mouse air pouch fluid): inhibited
- neutrophil influx ([2]; mouse air pouch, compound injected into pouch): inhibited
- IC50 (CK1α): 1400 nM
